Consider one compound from US10030064B2, “Mammalian cell culture processes for protein production” (priority 2009, dated 2018).

Assay [1] deals with CHO cells. As to the kind of experiment: Fed-batch 10-L bioreactor CHO culture: VCD, viability, titer. The assay is classed as cell-based, Chinese hamster. On the procedure: Bioreactor experiments were performed in 10-L bioreactors (Sartorius Stedim Biotech, France) with starting working volumes of 5 L. Agitation, pH and dissolved oxygen were controlled at 150 rpm, 7.05, and 50% air saturation, respectively. Temperature was initially controlled at 37° C. and was shifted to lower temperature during the culture to extend the culture viability. The bioreactors were operated in a batch fed mode and were fed daily starting on day 3 with the proprietary feed medium to maintain adequate concentrations for glucose and other nutrients. Samples were taken during the cell culture process and analyzed for cell density, cell viability, substrates and metabolites.
The eluted protein was quantified using a 10-level standard curve.
Different from shake flask runs, bioreactor runs were extended to 14 days, the culture temperature was shifted to a lower temperature during the late exponential phase of the culture, and a proprietary feeding medium was used instead of feeding only glucose and glutamine.

Assay [2] concerns GILZ (glucocorticoid-induced leucine zipper). Description: qRT-PCR of GILZ gene expression in CHO cells. The assay is classed as cell-based, Chinese hamster. As to conditions: 1 μM DEX added day 2. On the procedure:
Purified RNA was treated with RNasefree DNaseI (Qiagen) and then used as a template to synthesize the first-strand cDNA using RT^2 First Strand Kit (SA Biosciences, Frederick, Md.). Expression of GILZ was quantitatively determined using GILZ specific TaqMan MGB probe (6-FAM-[…]) and primers (Forward: 5-[…]-3 and Reverse: 5-[…]-3). 20 ng of cDNA was amplified using 900 nM primers and 250 nM probe in 1× TaqMan Fast Universal PCR Master Mix (Applied Biosystems, Carlsbad, Calif.). Reactions were run in triplicate on the Applied Biosystems 7500 Fast Real-Time PCR System using the universal cycling parameters (20 s 95° C., 40 cycles of 3 s 95° C., 30 s 60° C.). Parallel reactions were set up on the same plate analyzing β-Actin in each sample as an endogenous control. The threshold cycle of each gene was normalized against the threshold cycle of “housekeeping gene” […]. Normalized changes in gene expression with respect to the control were calculated using delta-delta threshold cycle method (Livak and Schmittgen, 2001).
GILZ was analyzed using qRT-PCR to validate the gene expression profiles obtained by microarray analysis. […] Parallel reactions were set up on the same plate analyzing β-Actin in each sample as an endogenous control.
(In general: In qPCR the cycle at which signal appears reflects the starting amount.)

The mark [3] stands for this setting: day 14, 1 μM DEX added on day 2.
[4] abbreviates: day 14, 1 μM DEX added on day 7.

In the case of `C[C@@H]1C[C@H]2[C@@H]3CCC4=CC(=O)C=C[C@]4(C)[C@@]3(F)[C@@H](O)C[C@]2(C)[C@@]1(O)C(=O)CO` [DEX, dexamethasone], the maximum cell density entry in assay [1] (1 μM DEX added on either day 2 or day 7, day 8) is reported as “approximately 8.3 ×10^6 cell/mL”. This compound also had a Cell viability in assay [1] (day 6, all conditions) of 94%. For the same compound, in assay [1] (day 7, prior to the maximum VCD), the Normalized protein titer entry is “approximately 5.5”. In assay [1] (day 14), the “increase of day 14 normalized titer vs without DEX” value is recorded as 20%. Further, the figures for the “Final VCD” value in assay [1] (setting [3]) and in assay [1] (setting [4]) were 4.1 ×10^6 cell/mL and 3.5 ×10^6 cell/mL, respectively. In addition, the percent viability in assay [1] (setting [3]) stood at 55%; in assay [1] (setting [4]), 39%. This compound returned a harvest normalized titer in assay [1] (day 14, both bioreactors with DEX) of 12.5. For the same compound, the results for the “normalized expression profile change of GILZ (qRT-PCR)” value in assay [2] (day 5 samples) and in assay [2] (day 8 samples) were 7.66±1.08 and 10.48±2.16, respectively.
